According to PubChem BioAssay (NCI):
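Five concentrations, 48 hours, 96-well plates. Here, GI50 denotes the concentration required for 50% inhibition of growth. TGI denotes the concentration required for complete inhibition of growth.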

Tests used:
Experiment in all cases: NCI tumour cell line growth inhibition, 48 h
HL-60(TB) leukemia = test system: HL-60(TB) leukemia
SF-539 CNS = test system: SF-539 CNS
MCF7 breast = test system: MCF7 breast
PC-3 prostate = test system: PC-3 prostate
RPMI-8226 leukemia = test system: RPMI-8226 leukemia
CCRF-CEM leukemia = test system: CCRF-CEM leukemia
HCT-116 colon = test system: HCT-116 colon
SW-620 colon = test system: SW-620 colon
NCI-H522 lung = test system: NCI-H522 lung
SK-OV-3 ovarian = test system: SK-OV-3 ovarian
OVCAR-5 ovarian = test system: OVCAR-5 ovarian
NCI-H23 lung = test system: NCI-H23 lung
OVCAR-8 ovarian = test system: OVCAR-8 ovarian
MOLT-4 leukemia = test system: MOLT-4 leukemia
SNB-75 CNS = test system: SNB-75 CNS
NCI-H460 lung = test system: NCI-H460 lung
SNB-19 CNS = test system: SNB-19 CNS
A498 renal = test system: A498 renal
HOP-92 NSCLC = test system: HOP-92 NSCLC
KM12 colon = test system: KM12 colon
LOX IMVI melanoma = test system: LOX IMVI melanoma
CAKI-1 renal = test system: CAKI-1 renal
RXF 393 renal = test system: RXF 393 renal
OVCAR-3 ovarian = test system: OVCAR-3 ovarian
T-47D breast = test system: T-47D breast
786-0 renal = test system: 786-0 renal
HS 578T breast = test system: HS 578T breast
COLO 205 colon = test system: COLO 205 colon
UACC-257 melanoma = test system: UACC-257 melanoma
HT29 colon = test system: HT29 colon
BT-549 breast = test system: BT-549 breast
SN12C renal = test system: SN12C renal
UACC-62 melanoma = test system: UACC-62 melanoma
SK-MEL-2 melanoma = test system: SK-MEL-2 melanoma
HCT-15 colon = test system: HCT-15 colon
MALME-3M melanoma = test system: MALME-3M melanoma
SF-268 CNS = test system: SF-268 CNS
A549 NSCLC = test system: A549 NSCLC
SF-295 CNS = test system: SF-295 CNS
U251 CNS = test system: U251 CNS
TK-10 renal = test system: TK-10 renal
IGROV1 ovarian = test system: IGROV1 ovarian
EKVX NSCLC = test system: EKVX NSCLC
HOP-62 NSCLC = test system: HOP-62 NSCLC
SK-MEL-28 melanoma = test system: SK-MEL-28 melanoma
NCI/ADR-RES ovarian = test system: NCI/ADR-RES ovarian
M14 melanoma = test system: M14 melanoma
UO-31 renal = test system: UO-31 renal
HCC-2998 colon = test system: HCC-2998 colon
MDA-MB-435 = test system: MDA-MB-435
K-562 leukemia = test system: K-562 leukemia
SR leukemia = test system: SR leukemia
NCI-H226 lung = test system: NCI-H226 lung
OVCAR-4 ovarian = test system: OVCAR-4 ovarian
MDA-MB-231 breast = test system: MDA-MB-231 breast
ACHN renal = test system: ACHN renal
SK-MEL-5 melanoma = test system: SK-MEL-5 melanoma
DU-145 prostate = test system: DU-145 prostate

SMILES: Cc1ccc(NS(=O)(=O)c2ccc(-c3cnc(C4CC4)o3)cc2)cc1C
- GI50 (HL-60(TB) leukemia): 0.259 µM
- TGI (HL-60(TB) leukemia): 1.46 µM
- GI50 (SF-539 CNS): 0.366 µM
- TGI (SF-539 CNS): 1.77 µM
- GI50 (MCF7 breast): 0.279 µM
- GI50 (PC-3 prostate): 0.432 µM
- TGI (PC-3 prostate): > 27.6 µM
- GI50 (RPMI-8226 leukemia): 0.45 µM
- TGI (RPMI-8226 leukemia): > 25.4 µM
- GI50 (CCRF-CEM leukemia): 0.433 µM
- TGI (CCRF-CEM leukemia): > 59.3 µM
- GI50 (HCT-116 colon): 0.394 µM
- TGI (HCT-116 colon): 10.8 µM
- GI50 (SW-620 colon): 0.341 µM
- TGI (SW-620 colon): > 72.2 µM
- GI50 (NCI-H522 lung): 0.267 µM
- TGI (NCI-H522 lung): 3.28 µM
- GI50 (SK-OV-3 ovarian): 0.917 µM
- TGI (SK-OV-3 ovarian): > 29.1 µM
- GI50 (OVCAR-5 ovarian): 1.31 µM
- TGI (OVCAR-5 ovarian): > 38.8 µM
- GI50 (NCI-H23 lung): 1.13 µM
- TGI (NCI-H23 lung): > 57.8 µM
- GI50 (OVCAR-8 ovarian): 0.916 µM
- TGI (OVCAR-8 ovarian): > 55.9 µM
- GI50 (MOLT-4 leukemia): 0.583 µM
- TGI (MOLT-4 leukemia): > 52.7 µM
- GI50 (SNB-75 CNS): 0.184 µM
- TGI (SNB-75 CNS): 0.823 µM
- GI50 (NCI-H460 lung): 0.481 µM
- TGI (NCI-H460 lung): 11.5 µM
- GI50 (SNB-19 CNS): 0.522 µM
- TGI (SNB-19 CNS): > 63.8 µM
- GI50 (A498 renal): 0.228 µM
- TGI (A498 renal): 0.932 µM
- GI50 (HOP-92 NSCLC): 0.308 µM
- TGI (HOP-92 NSCLC): 3.35 µM
- GI50 (KM12 colon): 0.279 µM
- TGI (KM12 colon): > 32.6 µM
- GI50 (LOX IMVI melanoma): 0.524 µM
- TGI (LOX IMVI melanoma): > 32.3 µM
- GI50 (CAKI-1 renal): 0.385 µM
- TGI (CAKI-1 renal): > 42.1 µM
- GI50 (RXF 393 renal): 0.338 µM
- TGI (RXF 393 renal): 3.89 µM
- GI50 (OVCAR-3 ovarian): 0.342 µM
- TGI (OVCAR-3 ovarian): 12.5 µM
- GI50 (T-47D breast): 0.373 µM
- TGI (T-47D breast): 16.7 µM
- GI50 (786-0 renal): 0.544 µM
- TGI (786-0 renal): > 37.8 µM
- GI50 (HS 578T breast): 0.45 µM
- TGI (HS 578T breast): 5.77 µM
- GI50 (COLO 205 colon): 0.464 µM
- TGI (COLO 205 colon): 1.84 µM
- GI50 (UACC-257 melanoma): 0.836 µM
- TGI (UACC-257 melanoma): 9.55 µM
- GI50 (HT29 colon): 0.33 µM
- TGI (HT29 colon): 1.57 µM
- GI50 (BT-549 breast): 0.715 µM
- TGI (BT-549 breast): 13.7 µM
- GI50 (SN12C renal): 0.711 µM
- TGI (SN12C renal): > 34 µM
- GI50 (UACC-62 melanoma): 0.383 µM
- TGI (UACC-62 melanoma): > 38 µM
- GI50 (SK-MEL-2 melanoma): 0.797 µM
- TGI (SK-MEL-2 melanoma): 14.4 µM
- GI50 (HCT-15 colon): 0.302 µM
- TGI (HCT-15 colon): > 33.2 µM
- GI50 (MALME-3M melanoma): 0.683 µM
- TGI (MALME-3M melanoma): 18.1 µM
- GI50 (SF-268 CNS): 1.11 µM
- TGI (SF-268 CNS): > 36.8 µM
- GI50 (A549 NSCLC): 0.751 µM
- TGI (A549 NSCLC): > 49.2 µM
- GI50 (SF-295 CNS): 0.407 µM
- TGI (SF-295 CNS): 3.47 µM
- GI50 (U251 CNS): 0.458 µM
- TGI (U251 CNS): > 33.9 µM
- GI50 (TK-10 renal): 1.44 µM
- TGI (TK-10 renal): 8.03 µM
- GI50 (IGROV1 ovarian): 0.593 µM
- TGI (IGROV1 ovarian): > 43.3 µM
- GI50 (EKVX NSCLC): 0.713 µM
- TGI (EKVX NSCLC): > 45.4 µM
- GI50 (HOP-62 NSCLC): 0.557 µM
- TGI (HOP-62 NSCLC): > 40.1 µM
- GI50 (SK-MEL-28 melanoma): 1.26 µM
- TGI (SK-MEL-28 melanoma): > 45.4 µM
- GI50 (NCI/ADR-RES ovarian): 0.407 µM
- TGI (NCI/ADR-RES ovarian): > 41.8 µM
- GI50 (M14 melanoma): 0.375 µM
- TGI (M14 melanoma): 11.8 µM
- GI50 (UO-31 renal): 0.839 µM
- TGI (UO-31 renal): 7.74 µM
- GI50 (HCC-2998 colon): 1.57 µM
- TGI (HCC-2998 colon): > 32.8 µM
- GI50 (MDA-MB-435): < 0.0252 µM
- TGI (MDA-MB-435): 2.46 µM
- GI50 (K-562 leukemia): < 0.0373 µM
- TGI (K-562 leukemia): > 68.4 µM
- GI50 (SR leukemia): 0.476 µM
- TGI (SR leukemia): > 100 µM
- GI50 (NCI-H226 lung): 0.843 µM
- TGI (NCI-H226 lung): > 28.4 µM
- GI50 (OVCAR-4 ovarian): 0.912 µM
- TGI (OVCAR-4 ovarian): 10.4 µM
- GI50 (MDA-MB-231 breast): 0.797 µM
- TGI (MDA-MB-231 breast): 15.9 µM
- GI50 (ACHN renal): 0.673 µM
- TGI (ACHN renal): > 33.9 µM
- GI50 (SK-MEL-5 melanoma): 0.39 µM
- TGI (SK-MEL-5 melanoma): 1.7 µM
- GI50 (DU-145 prostate): 0.972 µM
- TGI (DU-145 prostate): > 68.7 µM
